Results on 4 compounds are retold here after paper PMC8406418 (Journal of Natural Products, 2021).

The structures appear in SMILES notation. “And” between values parts separate entries of the source, which are not always exact repeats. Equal values may be shown once. Read-outs that look alike come from different tables or passages of the source. Where a SMILES comes first, the peptide text is derived from it. Bridges are numbered along the chain shown (N, C = ends).

The target in test [1] is T1, mouse KOR (Mus musculus, UniProt P33534). The test is described as follows: cell-based. To be noted: for Emax: HEK293, read-out: Emax cAMP inhibition.
T1 sequence (P33534 whole entry): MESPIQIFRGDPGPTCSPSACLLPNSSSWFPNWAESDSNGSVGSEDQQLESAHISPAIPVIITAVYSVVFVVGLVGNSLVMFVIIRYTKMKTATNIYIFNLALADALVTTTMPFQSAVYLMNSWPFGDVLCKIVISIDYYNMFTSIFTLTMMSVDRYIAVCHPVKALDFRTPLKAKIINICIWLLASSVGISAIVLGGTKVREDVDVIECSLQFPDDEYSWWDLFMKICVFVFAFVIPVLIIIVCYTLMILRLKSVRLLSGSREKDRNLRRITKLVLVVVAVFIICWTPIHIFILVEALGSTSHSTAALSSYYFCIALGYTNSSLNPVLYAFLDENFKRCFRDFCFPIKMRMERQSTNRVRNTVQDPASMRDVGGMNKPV
Test [2] has as its system human T-cell proliferation. On the set-up: method as in PMID 23840803. To be noted: cited from earlier work.
The target of test [3] is T1, mouse KOR. The test is described as follows: biochemical.
For test [4], the target named is T1, mouse KOR. It counts as cell-based. The arrangement: expressed in transfected cells; host or cells: HEK293 (transient, jetPRIME).
For test [5], the target named is T1, mouse KOR.
For test [6], the system named is untransfected HEK 293 cells. It counts as cell-based.

Usually EC50 stands for the concentration at which the effect is half-maximal. For orientation: Emax means the greatest response seen or fitted, relative to the assay's reference. A word on the Ki: it is a measure of affinity in units of concentration, obtained from inhibition or displacement.

In the case of `CC(C)C[C@@H]1NC(=O)CNC(=O)[C@H](CC(N)=O)NC(=O)[C@H](CCCNC(=N)N)NC(=O)[C@H]([C@@H](C)O)NC(=O)[C@@H]2CSSC[C@@H]3NC(=O)[C@H]([C@@H](C)O)NC(=O)CNC(=O)CNC(=O)[C@H](C(C)C)NC(=O)[C@@H]4CSSC[C@H](NC(=O)[C@H](CCCCN)NC(=O)[C@H](CSSC[C@H](NC(=O)[C@H](C(C)C)NC(=O)[C@@H]5CCCN5C1=O)C(=O)NCC(=O)N[C@@H](CCC(=O)O)C(=O)N[C@@H]([C@@H](C)O)C(=O)N4)NC(=O)CNC(=O)[C@@H]1CCCN1C(=O)[C@H]([C@@H](C)O)NC(=O)[C@H](CC(N)=O)NC3=O)C(=O)N[C@@H](CO)C(=O)N[C@@H](Cc1c[nH]c3ccccc13)C(=O)N1CCC[C@H]1C(=O)N[C@@H](C(C)C)C(=O)N2` [T20K, [T20K]kalata B1] (cyclo(CGETCVGGTCNTPGCKCSWPVCTRNGLPV); disulfide 1-15, 5-17, 10-22), on mouse KOR [1], the “increase in basal cAMP production” value is listed as about 50%, the “increase in efficacy of dyn A1–13 (cAMP)” value is recorded as 30–60% and the Emax came to 105 ± 5%. Also, at mouse KOR [1] (EC50 cAMP inhibition), the EC50 is 24 µM and ~24 µM. Further, the “potency to suppress lymphocyte proliferation” value in test [2] is 2 to 4 µM. In addition, the Ki on mouse KOR [3] was 2 µM and ~2 µM. The “β-arrestin-2 recruitment (interaction of β-arrestin-2 and KOR)” value at mouse KOR [4] was “no interaction of β-arrestin-2 and KOR was detected”.

Consider `CC[C@H](C)[C@@H]1NC(=O)[C@H](C(C)C)NC(=O)[C@H]([C@@H](C)O)NC(=O)[C@H](CO)NC(=O)[C@H](Cc2ccccc2)NC(=O)[C@@H]2CSSC[C@@H]3NC(=O)[C@H](C(C)C)NC(=O)[C@H](CCCCN)NC(=O)[C@H](CC(N)=O)NC(=O)[C@H](CCCCN)NC(=O)[C@@H]4CSSC[C@H](NC(=O)[C@H](CO)NC(=O)[C@H](CCC(=O)O)NC(=O)CNC(=O)[C@H](CSSC[C@H](NC(=O)CNC1=O)C(=O)N[C@@H](CO)C(=O)N4)NC(=O)[C@@H]1CCCN1C(=O)[C@H]([C@@H](C)CC)NC(=O)[C@H](C(C)C)NC(=O)CNC(=O)[C@H](CC(N)=O)NC(=O)[C@H](CCCNC(=N)N)NC(=O)[C@H](Cc1ccc(O)cc1)NC3=O)C(=O)N[C@@H](C(C)C)C(=O)N[C@@H](Cc1ccccc1)C(=O)N[C@@H]([C@@H](C)CC)C(=O)N1CCC[C@H]1C(=O)N2` [caripe 10] (cyclo(CFSTVIGCSCKNKVCYRNGVIPCGESCVFIP); disulfide 1-15, 8-23, 10-27), for which, at mouse KOR [1] (EC50 cAMP inhibition), the EC50 was 60.2 µM and ~60 µM. In addition, the Emax at mouse KOR [1] came to 144 ± 12%. In addition, the “displacement of [3H]-DPN by cyclotides” value at mouse KOR [5] was “strongest effect”. The compound further registered a Ki at mouse KOR [3] of 1.2 ± 0.3 µM.

Consider `CC[C@H]1CN2CCc3cc(OC)c(OC)cc3[C@@H]2C[C@@H]1C[C@H]1NCCc2cc(OC)c(OC)cc21` [Emetine], for which the “displacement of [3H]-DPN” value on mouse KOR [5] (up to concentrations of 10 μM, 1 nM [3H]-DPN) is listed as “did not displace the radioligand”.

Take `CC[C@H](C)[C@H](NC(=O)[C@H](CCCNC(=N)N)NC(=O)[C@H](CCCNC(=N)N)NC(=O)[C@H](CC(C)C)NC(=O)[C@H](Cc1ccccc1)NC(=O)CNC(=O)CNC(=O)[C@@H](N)Cc1ccc(O)cc1)C(=O)N[C@@H](CCCNC(=N)N)C(=O)N1CCC[C@H]1C(=O)N[C@@H](CCCCN)C(=O)N[C@@H](CC(C)C)C(=O)N[C@@H](CCCCN)C(N)=O` [dyn A1–13, Dyn A1–13 amide, reference compound]: the “cAMP inhibition Emax ± SD” value on mouse KOR [1] was 115.5 ± 20.0% and 122.0 ± 21.6% and 133.2 ± 41.9 % and 160.3 ± 47.4 % and 158.8 ± 54.0 %. Moreover, the EC50 at mouse KOR [1] (read-out: cAMP inhibition EC50 ± SD) came out at 0.0088 ± 0.0024 µM; at mouse KOR [4] (read-out: EC50 β-arrestin-2 recruitment) it was 0.159 ± 0.0924 µM. Further, the “changes in cAMP levels” value in test [6] is given as “no changes in cAMP levels were observed”. Besides, the Ki on mouse KOR [5] (read-out: Ki ± SD) was 0.0004 µM and 0.0003 µM.
